Laboratory results reported in patent US4918174A, “Tiacumicin compounds” (Abbott Laboratories, priority 1986, dated 1990).
In brackets after ≈: the same amount, converted by molar mass. Where two headings read alike, the source gives them in different places.

Experiments:
[1] = system: Staphylococcus epidermidis 3519; test: Minimal Inhibitory Concentrations against common test organisms; type: cell-based
solubility = type: physicochemical
[2] = system: Staphylococcus aureus ATCC 6538; test: Minimal Inhibitory Concentrations against common test organisms; type: cell-based
Micrococcus luteus 4698 = test: as above; type: cell-based
[3] = system: Streptococcus pyogenes 930; test: as above; type: cell-based
Micrococcus luteus 9341 = test: as above; type: cell-based
[4] = system: Streptococcus faecium ATCC 8043; test: as above; type: cell-based; details: Enterococcus faecium, ATCC8043
[5] = system: Pseudomonas aeruginosa A-5007; test: as above; type: cell-based; details: A5007
Esherichia coli Juhl = test: as above; type: cell-based
[6] = system: Candida albicans ATCC 10231; test: as above; type: cell-based; details: ATCC10231
Gram-positive bacteria = test: antibiotic activity against Gram-positive bacteria in vitro; type: cell-based; details: including strains resistant to currently used therapeutic antibiotics
[7] = system: Propionibacterium acnes 132; test: Minimal Inhibitory Concentrations against common test organisms; type: cell-based; details: Cutibacterium acnes
Bacteroides fragilis 784 = test: as above; type: cell-based
[8] = ATCC6538, Staphylococcus aureus ATCC 6538, read-out: Minimal Inhibitory Concentrations

Compound | MIC [1] | solubility in acetonitrile (solubility) | solubility in benzene (solubility) | solubility in chloroform (solubility) | solubility in methanol (solubility) | solubility in water (solubility) | MIC [2, 8] | MIC [3] | MIC (Micrococcus luteus 9341) | solubility in ether (solubility) | solubility in hexane (solubility) | MIC [4] | MIC [5] | MIC (Esherichia coli Juhl) | MIC [6] | antibiotic activity against a number of Gram-positive bacteria (Gram-positive bacteria) | other results
CCC1CC=C(C)C=C(C)C(OC2OC(C)(C)C(OC(C)=O)C(O)C2O)C(CC)C=C(C)C(O)CC=CC=C(C)C(=O)O1 (centres unmarked) [Tiacumicin A] | 100 µg/mL (≈ 165 µM) | sparingly soluble | readily soluble | readily soluble | readily soluble | insoluble | 100 µg/mL (≈ 165 µM) | 100 µg/mL (≈ 165 µM) | 0.1 µg/mL (≈ 0.165 µM) | – | – | – | – | – | – | – | solubility in acetone (solubility; acetone): sparingly soluble; MIC (Micrococcus luteus 4698): 0.39 µg/mL (≈ 0.645 µM)
CCc1c(Cl)c(O)c(Cl)c(O)c1C(=O)OC1C(O)C(C)OC(OCC2=CC=CCC(O)C(C)=CC(CC)C(OC3OC(C)(C)C(O)C(O)C3OC(=O)C(C)C)C(C)=CC(C)=CCC(C(C)O)OC2=O)C1OC (centres unmarked) [Tiacumicin D] | > 25 µg/mL | readily soluble | sparingly soluble | sparingly soluble | readily soluble | insoluble | > 25 µg/mL | > 25 µg/mL | 0.2 µg/mL (≈ 0.189 µM) | sparingly soluble | insoluble | > 25 µg/mL | > 25 µg/mL | > 25 µg/mL | – | – | –
CCc1c(Cl)c(O)c(Cl)c(O)c1C(=O)OC1C(C)OC(OCC2=CC=CCC(O)C(C)=CC(CC)C(OC3OC(C)(C)C(O)C(O)C3OC(=O)C(C)C)C(C)=CC(C)=CCC(C(C)O)OC2=O)C(OC)C1O (centres unmarked) [Tiacumicin C] | 25 µg/mL (≈ 23.6 µM) | readily soluble | sparingly soluble | sparingly soluble | readily soluble | insoluble | 50 µg/mL (≈ 47.3 µM) | 25 µg/mL (≈ 23.6 µM) | ≤ 0.39 µg/mL | sparingly soluble | insoluble | 100 µg/mL (≈ 94.5 µM) | > 100 µg/mL | > 100 µg/mL | > 100 µg/mL | possessed antibiotic activity | –
CCC(=O)OC1C(OC2C(C)=CC(C)=CCC(C(C)O)OC(=O)C(COC3OC(C)C(OC(=O)c4c(O)c(Cl)c(O)c(Cl)c4CC)C(O)C3OC)=CC=CCC(O)C(C)=CC2CC)OC(C)(C)C(O)C1O (centres unmarked) [Tiacumicin E] | 12.5 µg/mL (≈ 12 µM) | readily soluble | sparingly soluble | sparingly soluble | readily soluble | insoluble | 2.5 µg/mL (≈ 2.39 µM) | 50 µg/mL (≈ 47.9 µM) | – | sparingly soluble | insoluble | 12.5 µg/mL (≈ 12 µM) | > 100 µg/mL | > 100 µg/mL | – | – | –
CCc1c(Cl)c(O)c(Cl)c(O)c1C(=O)OC1C(C)OC(OCC2=CC=CCC(O)C(C)=CC(CC)C(OC3OC(C)(C)C(O)C(OC(=O)C(C)C)C3O)C(C)=CC(C)=CCC(C(C)O)OC2=O)C(OC)C1O (centres unmarked) [Tiacumicin F] | 12.5 µg/mL (≈ 11.8 µM) | readily soluble | sparingly soluble | sparingly soluble | readily soluble | insoluble | 12.5 µg/mL (≈ 11.8 µM) | 12.5 µg/mL (≈ 11.8 µM) | 6.2 µg/mL (≈ 5.86 µM) | sparingly soluble | insoluble | 6.2 µg/mL (≈ 5.86 µM) | > 100 µg/mL | > 100 µg/mL | – | – | –
CCc1c(Cl)c(O)c(Cl)c(O)c1C(=O)OC1C(C)OC(OCC2=CC=CCC(O)C(C)=CC(CC)C(OC3OC(C)(C)C(OC(=O)C(C)C)C(O)C3O)C(C)=CC(C)=CCC(C(C)O)OC2=O)C(OC)C1O (centres unmarked) [Tiacumicin B] | 12.5 µg/mL (≈ 11.8 µM) | readily soluble | sparingly soluble | sparingly soluble | readily soluble | insoluble | – | 12.5 µg/mL (≈ 11.8 µM) | 0.1 µg/mL (≈ 0.0945 µM) | sparingly soluble | insoluble | 12.5 µg/mL (≈ 11.8 µM) | > 100 µg/mL | > 100 µg/mL | > 100 µg/mL | possessed antibiotic activity | MIC [7]: 6.25 µg/mL (≈ 5.91 µM); MIC ([2]; Staphylococcus aureus, ATCC6538, read-out: Minimal Inhibitory Concentrations): 12.5 µg/mL (≈ 11.8 µM); MIC (Bacteroides fragilis 784): > 100 µg/mL
